These are literature values, as cited in patent US9463180B2, “Treatment of molluscum contagiosum” (QUADEX PHARMACEUTICALS, LLC, priority 2013, dated 2016).

This data set has as its system molluscum contagiosum. The conditions noted are these: small studies; applied 3 times per week, left on skin 6 to 10 hours.

In the case of `CC(C)Cn1cnc2c(N)nc3ccccc3c21` [Imiquimod], the success rate result is recorded as “about 80%”.
